According to US9944596B2, “Heterocyclic compound” (TAKEDA PHARMACEUTICAL COMPANY LIMITED, priority 2014, dated 2018):

Tests used:
RBP4 = molecular target: T1, RBP4 (Mus musculus, UniProt Q00724); assay: Blood RBP4-lowering action in C57BL/6J mouse (plasma RBP4 by ELISA); type: in vivo; settings: male C57BL/6J mice, mean±SD, n=4 or 5; for RBP4 (initial value/control value %) 8 hr later: plasma 8 hr after administration
T1 construct: from tissue; host or cells: plasma of male C57BL/6J mice (Japan Charles River)
Procedure: The blood RBP4-lowering action of the compound of the present invention was evaluated using C57BL/6J mouse.
Male 7- to 10-week-old C57BL/6J mice (Japan Charles River) were acclimation reared under free food ingestion conditions on CE-2 solid feed (CLEA Japan, Inc.) for 4 to 6 days, and randomly grouped (4 or 5 per group). On the day of the test, blood samples were collected from the tail vein, and plasma was separated (0 hr value). Thereafter, a test compound (Example 1, 4, 5, 6 or 7) was orally administered at a dose of 5 mg/kg (solvent: 0.5% methylcellulose solution (10 mL/kg)). At 8 hr after the compound was administered, blood samples were collected from the tail vein and plasma was separated. Immediately after the blood samples were collected, the test compound was orally administered again at a dose of 5 mg/kg, and blood samples were collected again at 24 hr after the initial administration. In Examples 2, 3 and 8, the initial administration alone was performed at a dose of 10 mg/kg. The daily dose of all the test compounds was set to 10 mg/kg. A 0.5% methylcellulose solution (10 mL/kg) was orally administered to the control group.
The amount of RBP4 in the collected plasma was measured by the ELISA method. Using rabbit anti-mouse RBP4 polyclonal antibody (Hokudo Co., Ltd.), RBP4 was quantified by the following process. A 96 well ELISA plate was coated with 50 μg/mL antibody (100 μL), and stood at 4° C. overnight or at room temperature for 2 hr. After blocking with BlockAce (Dainippon Pharmaceutical Co., Ltd.), 100 μL of mouse RBP4 or sample was added and the plate was stood at room temperature for 2 hr, washed with PBS-0.5% Tween20, added with HRP-labeled anti-RBP4 antibody (prepared by labeling RBP4 polyclonal antibody (Hokudo Co., Ltd.) with HRP (DOJINDO LABORATORIES)) (100 μL), and stood at room temperature for 1 hr. After washing, TMB (Sigma) was added at room temperature for 20 min to allow for color development. The reaction was quenched with 2N sulfuric acid and the absorbance at A450 nm was measured by a platereader. Variation from the initial value of each individual was taken as the relative value to the control group (initial value/control value, %) at each time point. The results are shown below in mean±standard deviation (n=4 or 5).

human RBP4 = molecular target: T2, human RBP4 (Homo sapiens, UniProt P02753); assay: Binding assay by Retinol-RBP4-TTR ELISA; settings: compound 10 μM; retinol 50 nM; His-tagged human RBP4, biotinylated human TTR; read-out: human RBP4 binding inhibitory activity (% at 10 μM)
T2 construct: the culture supernatant containing secreted hRBP4-His was recovered; made in house; host or cells: FreeStyle 293 expression system (Invitrogen)
Procedure: Using the Retinol-RBP4-TTR ELISA system shown below, the action of the compound of the present invention to inhibit the binding of RBP4 and retinol and TTR was evaluated.
1F: Binding Assay by Retinol-RBP4-TTR ELISA
This ELISA system detects a complex with RBP4 and TTR based on the retinol dependent binding of RBP4 to TTR.
The His-tagged human RBP4 used was prepared in the above-mentioned 1C.
The biotinylated human TTR used was prepared in the above-mentioned 1E.
Streptavidin (20 μl) (10 μg/ml Streptavidin type II (Wako Pure Chemical Industries, Ltd.), 10 mM Tris-HCl (pH 7.5), 10 mM NaCl) was added to a 384 well blackplate (Nunc MaxiSorp, Thermo Fisher Scientific Inc.), and the plate was centrifuged (1000 rpm, 1 min) and coated at 4° C. overnight. The plate was washed twice with PBST (PBS, 0.05% Tween 20, 100 μl/well), and blocked with 25% Block Ace (Snow Brand Milk Products Co., Ltd., PBS, 100 μl/well). The plate was subjected to centrifugation (1000 rpm, 1 min), and incubated at room temperature for 4 hr or 4° C. overnight. The plate was washed twice with PBST (PBS, 0.05% Tween 20, 100 μl/well), and biotinylated human TTR (stock solution concentration 1.0 mg/ml) diluted 750-fold with PBST was added at 20 μl/well. The plate was subjected to centrifugation (1000 rpm, 1 min), and further stood at room temperature for 1.5 hr or 4° C. overnight. The plate was washed 3 times with PBST (100 μl/well), and His-tagged human RBP4 (stock solution concentration 1.28 mg/ml) diluted 4000-fold with a reaction buffer (50 mM Tris-HCl, 150 mM NaCl, 0.005% Tween 20, 1 mM DTT, 0.1% BSA) was added at 10 μl/well. The dilution of the compound (200-fold concentration) was prepared with DMSO, and 1.6 μl each was added to a reaction buffer (320 μl) containing retinol (50 nM) (Sigma-Aldrich Co.). A reaction buffer (320 μl) containing retinol and added with DMSO was used as a positive control, and a reaction buffer (320 μl) not containing retinol and added with DMSO was used as a negative control. A mixed solution of retinol and the compound was added to the plate at 15 μl/well. The plate was stirred in a plate mixer, centrifuged (1000 rpm, 1 min), and reacted at room temperature for 2 hr. Anti-His HRP-conjugated antibody (QIAGEN) solution diluted with a reaction buffer was added […], centrifuged (1000 rpm, 1 min), and reacted at room temperature for 30 min. The plate was washed 3 times with PBST (100 μl/well), SuperSignal ELISA Femto Maximum Sensitivity Substrate reagent (PIERCE, Thermo Fisher Scientific Inc.) was added at 30 μl/well, and the luminescence was measured by a plate reader (Envision).
The binding inhibitory activity of the compound was determined by 100×(positive control value−test compound value)/(positive control value−negative control value).

A2E = assay: Suppression of A2E accumulation in the eyeball of ABCA4 KO mouse (HPLC); type: in vivo; settings: male ABCA4 KO mice, oral 5 mg/kg twice per day for 12 weeks, n=6
Procedure: The suppressive action for accumulation of retinoid metabolite bis-retinoid N-retinylidene-N-retinylethanolamine (A2E) in the eyeball, of the compound of the present invention, was evaluated using ATP-binding cassette A4 knockout (ABCA4 KO) mouse. A2E is the major constituent component of Lipofuscin in the eyeball, and is involved in the onset and pathology progression in atrophic age-related macular degeneration and Stargardt's disease. ABCA4 KO mouse was confirmed to show remarkable accumulation of A2E, Lipofuscin along with aging, and is known as an animal model of atrophic age-related macular degeneration and Stargardt's disease.
8-Week-old male ABCA4 KO mice were randomly grouped, and 0.5% methylcellulose solution was orally administered to the control group, and 0.5% methylcellulose suspension of a compound at a dose shown in the following Table was orally administered to the test compound group, each twice per day at 10 mL/kg. Each group contained 6 mice. After repetitive administration for 12 weeks, eyeball was isolated under anesthesia.
In the eyeball, A2E was measured by the HPLC method. A2E reference standard was synthesized from all-trans retinal, ethanolamine in acetic acid-added ethanol. […] Quantification was performed at ultraviolet absorbance at 440 nm by PDA.

[1] = oral 5 mg/kg at 0 hr and again at 8 hr (daily dose 10 mg/kg), plasma 24 hr after initial administration
[2] = oral 10 mg/kg initial administration alone
[3] = oral 10 mg/kg initial administration alone, plasma 24 hr after administration

RBP4 (initial value/control value %) 24 hr later (RBP4; [1]) [%]	RBP4 (initial value/control value %) 8 hr later (RBP4; oral 5 mg/kg) [%]	inhibition at 10 µM (human RBP4) [%]	RBP4 (initial value/control value %) 8 hr later (RBP4; [2]) [%]	RBP4 (initial value/control value %) 24 hr later (RBP4; [3]) [%]	SMILES	A2E (% of control value) (A2E) [%]
28.49 ± 5.16	30.02 ± 6.85	100			O=C(O)CC(=O)N1CC[C@H](COc2ccccc2C2(C(F)(F)F)CC2)C1 [Example 1, 3-oxo-3-((3S)-3-((2-(1-(trifluoromethyl)cyclopropyl)phenoxy)methyl)pyrrolidin-1-yl)propanoic acid]	
		98	11.82 ± 3.24	36.40 ± 12.19	CC1(c2ccccc2OC[C@H]2CCN(C(=O)CC(=O)O)C2)CC1 [Example 2, 3-((3S)-3-((2-(1-methylcyclopropyl)phenoxy)methyl)pyrrolidin-1-yl)-3-oxopropanoic acid]	
		98	37.20 ± 3.71	95.57 ± 8.55	O=C(O)CC(=O)N1CC[C@H](COc2ccccc2C2CCC2)C1 [Example 3, 3-((3S)-3-((2-cyclobutylphenoxy)methyl)pyrrolidin-1-yl)-3-oxopropanoic acid]	
56.02 ± 9.72	29.93 ± 6.80	100			O=C(O)CC(=O)N1CC[C@H](COc2ccccc2C2CCCC2)C1 [Example 4, 3-((3S)-3-((2-cyclopentylphenoxy)methyl)pyrrolidin-1-yl)-3-oxopropanoic acid]	53.94 ± 15.16
62.83 ± 4.70	32.30 ± 1.76	100			O=C(O)CC(=O)N1CC[C@H](COc2ccccc2C2CCCCC2)C1 [Example 5, 3-((3S)-3-((2-cyclohexylphenoxy)methyl)pyrrolidin-1-yl)-3-oxopropanoic acid]	
41.90 ± 20.25	41.42 ± 13.96	100			O=C(O)CC(=O)N1CC[C@@H](COc2ccccc2C2CCCC2)C1 [Example 6, 3-((3R)-3-((2-cyclopentylphenoxy)methyl)pyrrolidin-1-yl)-3-oxopropanoic acid]	
53.72 ± 6.97	33.90 ± 6.60	100			O=C(O)CC(=O)N1CCC(COc2ccccc2C2CCCC2)C1 (stereo not drawn) [Example 7, 3-(3-((2-cyclopentylphenoxy)methyl)pyrrolidin-1-yl)-3-oxopropanoic acid]	
			77.35 ± 7.08	92.76 ± 6.81	CCOC(=O)CC(=O)N1CC[C@H](COc2ccccc2C2(C(F)(F)F)CC2)C1 [Example 8, ethyl 3-oxo-3-((3S)-3-((2-(1-(trifluoromethyl)cyclopropyl)phenoxy)methyl)pyrrolidin-1-yl)propanoate]	
